The source of these data is US10952963B2, “Ready to use liquid RECK formulation” (QuVa Pharma, Inc., priority 2018, dated 2021).

Molecules are shown by their SMILES.

For the series the following is noted: for pH that provides for acceptable stability: pH 4.8. The method, then:
Multiple antioxidants, chelating agents, and buffers were evaluated to stabilize both epinephrine and ketorolac, which include: sodium bisulfite, sodium metabisulfite, EDTA Sodium Dihydrate (i.e., EDTA Sodium), citric acid, sodium phosphate dibasic, and PEG 400. Solution pH values were evaluated from a pH of 3.9-6.0.

For the compound `O=C(c1ccccc1)c1ccc2n1CCC2C(=O)O` (stereo not shown) [ketorolac], the “pH at which rate of degradation increases” value was “less than 5”, the “pH at which substance tended to degrade” value was “less than 4.5”, the “pH range of maximum stability” value is reported as 6-7 and the “sodium metabisulfite concentration in the presence of which the substance degrades substantially” value is at least 1 mg/mL. Moreover, the “pH that provides for acceptable stability” value is recorded as “about 4.8”.

In the case of `CCCN1CCCC[C@H]1C(=O)Nc1c(C)cccc1C` [ropivacaine], the “pH range of maximum stability” value was 3-4.

In the case of `Clc1cccc(Cl)c1N=C1NCCN1` [clonidine], the “pH range of maximum stability” value is reported as 3-4.

In the case of `CNC[C@H](O)c1ccc(O)c(O)c1` [epinephrine], the “pH at which substantial degradation occurs” value is reported as “greater than 4”, the “pH range of maximum stability” value is given as 3-4 and the “pH that provides for acceptable stability” value is “about 4.8”.
